Drawing on ChEMBL document CHEMBL4359878, “Discovery of 4-piperazinyl-2-aminopyrimidine derivatives as dual inhibitors of JAK2 and FLT3” (Eur J Med Chem, 2019), this text covers Activity for one molecule.

The structures appear in SMILES notation.

The test system of the test is HEL. Description: Induction of apoptosis in human HEL cells assessed as late apoptotic cells at 9 uM after 72 hrs by FITC-annexin V/propidium iodide-double staining based flow cytometry (reference value: 1.63%). Format: functional. In general terms: Flow cytometry measures light scatter and fluorescence of single cells or particles in a stream.

As for `CC(=O)c1ccc(NC(=O)N2CCN(c3ccnc(Nc4ccc(N5CCOCC5)cc4)n3)CC2)cc1`, the Activity came to 30.4%.
